Test results from PMC3038857, “Using Nuclear Receptor Activity to Stratify Hepatocarcinogens” (PLoS ONE, 2011).
Read-outs that look alike come from different tables or passages of the source.

Experiments:
[1] = biological target: T1, AR (androgen receptor) (Homo sapiens, UniProt P10275); experiment: NCGC_AR_Agonist: GAL4 BLAM Reporter gene assay: AR; assay type: cell-based; conditions: agonist mode; scale not given, looks like -log10 of molar active concentration; 0 = no activity
T1 construct: expressed in transfected cells
T1 sequence (P10275 1-920): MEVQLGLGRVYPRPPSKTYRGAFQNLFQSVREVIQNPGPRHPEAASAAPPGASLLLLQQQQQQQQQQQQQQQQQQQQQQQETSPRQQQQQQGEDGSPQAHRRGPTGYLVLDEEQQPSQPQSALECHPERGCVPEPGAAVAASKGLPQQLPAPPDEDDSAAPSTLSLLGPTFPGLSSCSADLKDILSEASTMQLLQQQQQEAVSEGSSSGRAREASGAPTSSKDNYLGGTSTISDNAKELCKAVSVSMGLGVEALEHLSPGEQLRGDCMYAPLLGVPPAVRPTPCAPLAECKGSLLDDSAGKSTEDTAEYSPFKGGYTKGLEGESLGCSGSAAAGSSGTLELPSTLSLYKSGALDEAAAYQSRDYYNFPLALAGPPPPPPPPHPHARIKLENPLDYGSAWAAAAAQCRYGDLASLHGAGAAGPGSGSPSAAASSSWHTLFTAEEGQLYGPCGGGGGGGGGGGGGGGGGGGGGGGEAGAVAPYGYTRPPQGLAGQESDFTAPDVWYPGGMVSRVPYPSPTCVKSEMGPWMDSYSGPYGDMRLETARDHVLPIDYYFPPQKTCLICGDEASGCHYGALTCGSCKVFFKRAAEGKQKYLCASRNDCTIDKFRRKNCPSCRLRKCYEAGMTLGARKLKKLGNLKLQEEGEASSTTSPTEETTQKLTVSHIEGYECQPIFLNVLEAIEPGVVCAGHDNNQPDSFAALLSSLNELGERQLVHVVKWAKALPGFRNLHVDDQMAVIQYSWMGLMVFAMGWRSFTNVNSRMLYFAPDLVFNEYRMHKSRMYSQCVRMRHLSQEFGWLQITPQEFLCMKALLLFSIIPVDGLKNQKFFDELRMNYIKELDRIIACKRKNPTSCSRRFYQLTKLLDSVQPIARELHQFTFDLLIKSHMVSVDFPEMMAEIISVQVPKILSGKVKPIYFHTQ
Protocol: (§1) These assays measure binding constants and enzyme inhibition values for nuclear receptors. The targets include [drawing 67] , [drawing 68] , [drawing 69] , [drawing 70] , [drawing 71] , [drawing 72] , [drawing 73] , [drawing 74] , [drawing 75] and [drawing 76] . Each of the nuclear receptor targets was measured in agonist mode. Assays were run at the NIH Chemical Genomics Center (Rockville, MD).
(§2) Cell-based HTS Assays: These assays measuring binding constants and enzyme inhibition values for nuclear receptors. The targets include AR, ER, FXR, LXR, PPARα, PPARδ, PPARγ, RXRα, RXRβ and PXR. Each of the nuclear receptor targets was measured in both agonist and antagonist mode, but the antagonist data is still undergoing analysis due to possible interference between cytotoxicity and assay activity, so antagonist mode data were not used in the present analysis. Assays were run at the NIH Chemical Genomics Center (Rockville, MD) as part of the Tox21 collaboration. […] The R^2 was required to be ≥0.5. Values where only the highest concentration exceeded 50% activity were excluded to eliminate weak or false positives. Detailed description of the methods, data and analysis methods for this dataset will be presented in a separate publication.

[2] = biological target: T1, AR (androgen receptor); experiment: NCGC_AR_Antagonist: GAL4 BLAM Reporter gene assay: AR; assay type: cell-based; conditions: antagonist mode
Protocol: as §1, §2

[3] = test system: Mouse Liver; conditions: ref ToxRefDB, cited from earlier work
[4] = scale not given, looks like -log10 of molar active concentration, 0 = no activity
[5] = mouse chronic study, liver, neoplastic lesion, coded 6 / Inf / 0, code not explained here

| SMILES | NCGC_AR_Agonist [1] | NCGC_AR_Antagonist [2, 4] | CHR_Mouse_Liver_3_NeoplasticLesion [3, 5] | further results |
| --- | --- | --- | --- | --- |
| CC1=C(C(=O)Nc2ccccc2)SCCO1 [r53] | 0 | 0 | – | – |
| COc1ccc(-c2ccccc2)cc1NNC(=O)OC(C)C [r38] | 0 | 0 | 6 | – |
| N#Cc1cc(Br)c(O)c(Br)c1 [r44] | 0 | 0 | 6 | – |
| CCC(C)n1c(=O)[nH]c(C)c(Br)c1=O (stereo not shown) [r43] | – | – | 6 | – |
| CC(C)N1C(=O)c2ccccc2NS1(=O)=O [r37] | – | – | 6 | – |
| CC(C)Oc1cc(-n2nc(C(C)(C)C)oc2=O)c(Cl)cc1Cl [row 225] | – | – | – | NCGC_AR_Antagonist [2]: 4.167; CHR_Mouse_Liver_3_NeoplasticLesion ([3]; chronic mouse study, liver): 6 |
| CC(C)N1C(=O)N(c2ccccc2)CS/C1=N\C(C)(C)C [r45] | 0 | 0 | 6 | – |
| CC(C)(c1ccc(O)cc1)c1ccc(O)cc1 [r40] | 0 | 4.137 | – | – |
| Cc1c(COC(=O)C2C(/C=C(\Cl)C(F)(F)F)C2(C)C)cccc1-c1ccccc1 (stereo not shown) [r39] | – | – | 6 | – |
| CCCC1COC(Cn2cncn2)(c2ccc(Cl)cc2Cl)O1 (stereo not shown) [r262] | – | – | – | CHR_Mouse_Liver_3_NeoplasticLesion ([3]; mouse, chronic study): 6 |
| Cc1ccccc1CO[C@@H]1C[C@@]2(C(C)C)CC[C@]1(C)O2 [r64] | 0 | 0 | 6 | – |
| CNC(=O)Oc1cccc2ccccc12 [r52] | – | – | 6 | – |
| CC(C)=CC1C(C(=O)OCc2coc(Cc3ccccc3)c2)C1(C)C (stereo not shown) [r280] | – | – | – | CHR_Mouse_Liver_3_NeoplasticLesion ([3]; chronic study, mouse liver): 6 |
| CCCCOCN(C(=O)CCl)c1c(CC)cccc1CC [r46] | 0 | 4.347 | – | – |
| CCSC(=O)N(CC(C)C)CC(C)C [r49] | 0 | 0 | – | – |
